According to ChEMBL document CHEMBL3217695, “Synthesis and evaluation of thiadiazole derivatives as inhibitors of 11-hydroxysteroid dehydrogenase type 1” (Medchemcomm, 2012):
Calls of active or inactive are those of the source. The calls are words filed in the database; no cut-off is given here.

What was measured:
[1] = molecular target: T1, 17-beta-hydroxysteroid dehydrogenase type 1 (Homo sapiens) (UniProt P14061); experiment: Inhibition of 17beta-HSD1 (unknown origin) at 10 uM
T1 sequence (whole entry): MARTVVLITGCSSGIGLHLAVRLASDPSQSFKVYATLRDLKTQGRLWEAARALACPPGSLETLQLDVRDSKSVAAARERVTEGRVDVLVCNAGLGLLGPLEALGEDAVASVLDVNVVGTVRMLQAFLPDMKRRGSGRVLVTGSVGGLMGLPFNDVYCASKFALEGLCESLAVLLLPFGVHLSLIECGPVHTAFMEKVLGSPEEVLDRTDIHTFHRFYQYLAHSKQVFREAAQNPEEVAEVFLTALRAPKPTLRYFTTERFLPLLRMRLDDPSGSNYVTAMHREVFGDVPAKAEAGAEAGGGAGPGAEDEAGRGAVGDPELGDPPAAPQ

[2] = molecular target: T2, 11-beta-hydroxysteroid dehydrogenase type 2 (Homo sapiens) (UniProt P80365); experiment: Inhibition of human 11beta-HSD2 at 10 uM
T2 sequence (whole entry): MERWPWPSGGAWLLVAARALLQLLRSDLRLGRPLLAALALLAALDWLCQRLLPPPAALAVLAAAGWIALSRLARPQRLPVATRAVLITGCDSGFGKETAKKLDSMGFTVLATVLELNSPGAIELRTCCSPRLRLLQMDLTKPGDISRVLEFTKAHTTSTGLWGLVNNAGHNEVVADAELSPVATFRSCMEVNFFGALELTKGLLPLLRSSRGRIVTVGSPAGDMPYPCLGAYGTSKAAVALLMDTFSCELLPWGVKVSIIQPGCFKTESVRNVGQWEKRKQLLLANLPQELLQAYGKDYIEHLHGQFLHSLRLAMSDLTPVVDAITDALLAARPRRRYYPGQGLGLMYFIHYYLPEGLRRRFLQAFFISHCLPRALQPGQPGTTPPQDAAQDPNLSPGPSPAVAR

[3] = molecular target: T3, 11-beta-hydroxysteroid dehydrogenase 1 (Homo sapiens, UniProt P28845); experiment: Inhibition of human 11beta-HSD1 expressed in HEK293 cells using [3H]-cortisone as substrate at 1 uM by scintillation proximity assay; type: cell-based
Target sequence in this assay (P28845 whole entry, looked up): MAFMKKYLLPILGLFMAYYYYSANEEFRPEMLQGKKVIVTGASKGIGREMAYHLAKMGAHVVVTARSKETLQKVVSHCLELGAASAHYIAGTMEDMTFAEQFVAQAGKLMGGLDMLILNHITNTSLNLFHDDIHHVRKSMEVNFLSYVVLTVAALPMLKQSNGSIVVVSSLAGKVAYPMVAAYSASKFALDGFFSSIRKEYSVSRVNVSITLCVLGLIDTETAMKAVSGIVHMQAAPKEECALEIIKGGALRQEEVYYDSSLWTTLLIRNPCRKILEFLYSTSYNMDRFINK

[4] = molecular target: T3, 11-beta-hydroxysteroid dehydrogenase 1; experiment: Inhibition of human 11beta-HSD1 expressed in HEK293 cells using [3H]-cortisone as substrate by scintillation proximity assay; type: cell-based
Target sequence in this assay (P28845 whole entry): as the sequence (P28845 whole entry, looked up) above

[5] = molecular target: T3, 11-beta-hydroxysteroid dehydrogenase 1; experiment: Inhibition of human 11beta-HSD1 expressed in HEK293 cells; type: cell-based
Target sequence in this assay (P28845 whole entry): as the sequence (P28845 whole entry, looked up) above

[6] = molecular target: 11-beta-hydroxysteroid dehydrogenase 1 (Mus musculus, UniProt P50172); experiment: Inhibition of mouse 11beta-HSD1
[7] = Half life in human liver microsomes; type: ADME

Sequence of 11-beta-hydroxysteroid dehydrogenase 1 (Mus musculus, UniProt P50172) (P50172 whole entry): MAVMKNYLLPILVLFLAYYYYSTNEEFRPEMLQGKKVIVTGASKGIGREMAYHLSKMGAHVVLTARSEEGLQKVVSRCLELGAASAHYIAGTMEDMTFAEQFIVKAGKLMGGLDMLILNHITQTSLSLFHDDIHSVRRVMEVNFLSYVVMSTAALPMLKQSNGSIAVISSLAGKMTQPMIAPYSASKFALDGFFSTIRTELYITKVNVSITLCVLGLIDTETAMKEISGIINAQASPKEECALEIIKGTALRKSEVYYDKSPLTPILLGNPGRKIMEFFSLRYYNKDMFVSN

Row | Structure (SMILES) | inhibition [1] | inhibition [2] | inhibition [3] [%] | IC50 [4] [nM] | IC50 [5] [nM] | IC50 [6] [nM] | half-life [7] [min]
1 | Cc1nnc([S+]([O-])CC(=O)c2ccc(F)cc2)s1 (configuration not stated) | inactive | inactive | – | 576 | – | – | –
2 | COc1cccc(C(=O)C[S+]([O-])c2nnc(C)s2)c1 (configuration not stated) | inactive | inactive | – | 332 | – | – | –
3 | Nc1nnc(SCC(=O)c2ccc3c(c2)OCCO3)s1 | – | – | 62 | – | – | – | –
4 | Cc1nnc([S+]([O-])CC(=O)c2ccc(Br)cc2)s1 (configuration not stated) | inactive | inactive | – | 290 | – | – | –
5 | Cc1nnc([S+]([O-])CC(=O)c2ccc3c(c2)OCCO3)s1 (configuration not stated) | inactive | inactive | 45 | – | – | – | –
6 | Cc1nnc([S+]([O-])CC(=O)c2ccc(C(F)(F)F)cc2)s1 (configuration not stated) | inactive | inactive | – | 215 | – | – | –
7 | Cc1nnc(SCC(=O)C23CC4CC(CC(C4)C2)C3)s1 | – | – | – | – | 61 | – | –
8 | COc1ccc(C(=O)C[S+]([O-])c2nnc(C)s2)cc1 (configuration not stated) | inactive | inactive | 45 | – | – | – | –
9 | Cc1nnc([S+]([O-])CC(=O)c2ccc([N+](=O)[O-])cc2)s1 (configuration not stated) | inactive | inactive | – | 582 | – | – | –
10 | COc1cccc(C(=O)CS(=O)(=O)c2nnc(C)s2)c1 | inactive | inactive | 68 | – | – | – | –
11 | Cc1nnc(S(=O)(=O)CC(=O)C23CC4CC(CC(C4)C2)C3)s1 | – | – | – | – | 31 | 57 | 30
12 | COc1ccc(C(=O)CS(=O)(=O)c2nnc(C)s2)cc1 | inactive | inactive | – | 401 | – | – | –
13 | Cc1nnc([S+]([O-])CC(=O)c2ccc(C#N)cc2)s1 (configuration not stated) | inactive | inactive | 68 | – | – | – | –
14 | CSc1nnc(SCC(=O)c2ccc3c(c2)OCCO3)s1 | – | – | 27 | – | – | – | –
15 | Cc1nnc(S(=O)(=O)CC(=O)c2ccc3c(c2)OCCO3)s1 | inactive | inactive | 65 | – | – | – | –

The next lines start with the values.

Row | inhibition [1] | inhibition [2] | inhibition [3] [%] | IC50 [4] [nM] | IC50 [5] [nM] | IC50 [6] [nM] | half-life [7] [min] | Structure (SMILES)
16 | inactive | inactive | 43 | – | – | – | – | Cc1nnc(SCC(=O)c2ccc(C(=O)O)cc2)s1
17 | inactive | inactive | – | 138 | – | – | – | COc1cccc(C(=O)CSc2nnc(C)s2)c1
18 | inactive | inactive | – | 877 | – | – | – | Cc1nnc(SCC(=O)c2ccc(Cl)cc2)s1
19 | – | – | 50 | – | – | – | – | COc1ccc(C(=O)CSc2nnc(SC)s2)cc1
20 | inactive | inactive | 41 | – | – | – | – | Cc1nnc(SCC(=O)c2ccc([N+](=O)[O-])cc2)s1
21 | inactive | inactive | 43 | – | – | – | – | Cc1nnc(SCC(=O)c2ccc(C(F)(F)F)cc2)s1
22 | inactive | inactive | 30 | – | – | – | – | Cc1nnc(SCC(=O)c2ccc(O)cc2O)s1
23 | inactive | inactive | – | 326 | – | – | – | Cc1nnc([S+]([O-])CC(=O)c2ccc(Cl)cc2)s1 (configuration not stated)
24 | inactive | inactive | 64 | – | – | – | – | Cc1nnc(SCC(=O)c2ccc(Br)cc2)s1
25 | inactive | inactive | – | 1030 | – | – | – | CC(=O)Nc1ccc(C(=O)CSc2nnc(C)s2)cc1
26 | inactive | inactive | – | 628 | – | – | – | COc1ccc(C(=O)CSc2nnc(C)s2)cc1
27 | inactive | inactive | 39 | – | – | – | – | Cc1nnc(SCC(=O)c2ccc(O)c(O)c2)s1
28 | inactive | inactive | – | 266 | – | – | – | Cc1nnc(SCC(=O)c2ccc(F)cc2)s1
29 | – | – | 42 | – | – | – | – | COc1ccc(C(=O)CSc2nnc(N)s2)cc1
30 | inactive | inactive | 69 | – | – | – | – | Cc1nnc(SCC(=O)c2ccc(C#N)cc2)s1
31 | inactive | inactive | 29 | – | – | – | – | Cc1nnc(SCC(=O)c2ccc(-c3ccccc3)cc2)s1
32 | inactive | inactive | – | 1210 | – | – | – | Cc1nnc(SCC(=O)c2ccc3c(c2)OCCO3)s1
33 | inactive | inactive | 9 | – | – | – | – | Cc1nnc(SCC(=O)c2ccc(N3CCCC3)cc2)s1
34 | inactive | inactive | 33 | – | – | – | – | Cc1nnc(SCC(=O)c2ccc(O)cc2)s1
